pKi: −log10 of the molar value. Entries after “also recorded” stand apart in the source; their conditions may differ. Where two headings read alike, the source gives them in different places.

We go through three molecules from paper PMC5441849, “Carvacrol derivatives as mushroom tyrosinase inhibitors; synthesis, kinetics mechanism and molecular docking studies” (PLoS ONE, 2017).

Test [1] concerns the target T1, mushroom tyrosinase (Agaricus bisporus, UniProt C7FF04).
T1 construct: purchased Sigma
Kind of test: Reversibility of inhibition (remaining enzyme activity versus enzyme concentration). The class given is biochemical, Agaricusbisporus. The note with it: enzyme 2 to 10 μg/mL, L-DOPA, 37°C. As to the method:
Assay conditions were same as described in assay protocolexceptthat the final concentration of enzyme was varied (2 to 10 μg/mL).

In test [2] the target is T1, mushroom tyrosinase. Put plainly: Kinetic analysis of tyrosinase inhibition (Lineweaver-Burk and Dixon plots, diphenolase activity). The note with it: for Type of inhibition: Lineweaver-Burk plots, oxidation of L-DOPA. It counts as biochemical, Agaricusbisporus. The protocol: Pre-incubation and measurement time was the same as discussed in mushroom tyrosinase inhibition assay protocol. Formation of DOPAchrome was continuously monitored at 475nm for 5min at a 30s interval in the microplate reader after addition of enzyme.

Setting [3] is: Dixon plot, L-DOPA substrate, read-out: Inhibition constant Ki.

T1 sequence (C7FF04 2-392): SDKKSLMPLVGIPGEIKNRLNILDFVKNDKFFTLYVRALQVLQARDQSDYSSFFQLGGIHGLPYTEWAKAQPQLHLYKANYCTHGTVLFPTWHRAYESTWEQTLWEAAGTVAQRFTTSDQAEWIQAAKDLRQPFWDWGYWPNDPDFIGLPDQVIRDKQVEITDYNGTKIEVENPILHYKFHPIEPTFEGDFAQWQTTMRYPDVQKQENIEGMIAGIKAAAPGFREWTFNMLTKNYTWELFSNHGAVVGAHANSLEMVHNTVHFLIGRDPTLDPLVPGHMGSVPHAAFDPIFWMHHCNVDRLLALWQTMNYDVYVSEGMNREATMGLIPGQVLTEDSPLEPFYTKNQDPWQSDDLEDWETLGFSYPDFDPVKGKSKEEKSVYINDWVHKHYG

`Cc1ccc(C(C)C)cc1OC(=O)COC(=O)/C=C/c1ccc(O)cc1O` [6c, 2-[2-methyl-5-(propan-2-yl)phenoxy]-2-oxoethyl (2E)-3-(2,4-dihydroxyphenyl)prop-2-enoate]: on mushroom tyrosinase [1], the “Reversibility of enzyme inhibition” value was “irreversible; also recorded: irreversibly”. Besides, on mushroom tyrosinase [2], the pKi – broadly, the negative decadic logarithm of the Ki, by convention in mol/L – is 7.30 and the Type of inhibition result is “non-competitive inhibitor”.
Turning to `Cc1ccc(C(C)C)cc1OC(=O)COC(=O)c1ccc(O)cc1O` [4c, 2-[2-methyl-5-(propan-2-yl)phenoxy]-2-oxoethyl 2,4-dihydroxybenzoate], the “Reversibility of enzyme inhibition” value on mushroom tyrosinase [1] is “reversible inhibitor; also recorded: reversibly”. Further, the pKi at mushroom tyrosinase [2] (setting [3]) was 4.72. Besides, the Type of inhibition result at mushroom tyrosinase [2] is “mixed-type inhibition”.
The matching figures for `Cc1ccc(C(C)C)cc1OC(=O)COC(=O)/C=C/c1ccc(O)cc1` [6b, 2-[2-methyl-5-(propan-2-yl)phenoxy]-2-oxoethyl (2E)-3-(4-hydroxyphenyl)prop-2-enoate]: “irreversible”, 5.00 and “mixed-type inhibition”.
